Experimental data taken from patent US10508120B2, “TYK2 inhibitors and uses thereof” (Nimbus Lakshmi, Inc., priority 2017, dated 2019).
Read-outs that look alike come from different tables or passages of the source.

How the values were obtained:
[1] = target: JAK2 kinase domain (JH1) (Homo sapiens (Human), UniProt O60674); test: JAK2 Radioactive Kinase Assay; assay type: biochemical; conditions: for inhibition at 10 µM: read-out: JAK2 JH1% Inhibition @ 10 μM
Method in brief: (§1)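 Each kinase domain is incubated with test compound at 10 μM. Activity is then measured radiometrically and expressed as percent inhibition relative to uninhibited enzyme.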

[2] = target: human TYK2 (JH2domain-pseudokinase) (Homo sapiens (Human), UniProt P29597); test: TYK2 JH2 Domain Binding Assay (KINOMEscan)
Method in brief: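 Competition binding of a DNA-tagged fusion of human TYK2 JH2 pseudokinase (G556–D888) with NFkB DNA-binding domain, from HEK293 extracts (<0.1 nM final), against immobilised ligand beads; 1 h shaking at room temperature, 0.9% DMSO. Bound kinase quantified by qPCR.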

[3] = target: Tyk2 kinase domain (DH1) (Homo sapiens (Human), UniProt P29597); test: Tyk2 Radioactive Kinase Assay; assay type: biochemical; conditions: for inhibition at 10 µM: read-out: Tyk2 JH1% Inhibition @ 10 μM
Method in brief: as §1

JAK2 kinase domain (JH1), sequence (O60674 849-1124): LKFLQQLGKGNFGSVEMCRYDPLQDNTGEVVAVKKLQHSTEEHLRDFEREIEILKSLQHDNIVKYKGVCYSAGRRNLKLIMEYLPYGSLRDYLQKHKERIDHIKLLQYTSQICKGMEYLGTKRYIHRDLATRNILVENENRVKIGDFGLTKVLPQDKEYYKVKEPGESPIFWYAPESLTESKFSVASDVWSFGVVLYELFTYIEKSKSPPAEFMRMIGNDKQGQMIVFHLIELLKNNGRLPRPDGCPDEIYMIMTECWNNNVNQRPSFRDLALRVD
Tyk2 kinase domain (DH1), sequence (P29597 897-1176): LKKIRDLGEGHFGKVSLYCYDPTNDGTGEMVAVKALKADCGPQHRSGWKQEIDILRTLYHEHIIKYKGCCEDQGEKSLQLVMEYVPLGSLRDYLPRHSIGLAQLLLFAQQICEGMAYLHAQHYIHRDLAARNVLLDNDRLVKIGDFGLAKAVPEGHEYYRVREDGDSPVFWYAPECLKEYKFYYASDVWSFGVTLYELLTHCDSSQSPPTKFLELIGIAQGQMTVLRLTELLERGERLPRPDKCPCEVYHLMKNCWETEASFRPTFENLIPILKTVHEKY
human TYK2 (JH2domain-pseudokinase), sequence (P29597 556-888): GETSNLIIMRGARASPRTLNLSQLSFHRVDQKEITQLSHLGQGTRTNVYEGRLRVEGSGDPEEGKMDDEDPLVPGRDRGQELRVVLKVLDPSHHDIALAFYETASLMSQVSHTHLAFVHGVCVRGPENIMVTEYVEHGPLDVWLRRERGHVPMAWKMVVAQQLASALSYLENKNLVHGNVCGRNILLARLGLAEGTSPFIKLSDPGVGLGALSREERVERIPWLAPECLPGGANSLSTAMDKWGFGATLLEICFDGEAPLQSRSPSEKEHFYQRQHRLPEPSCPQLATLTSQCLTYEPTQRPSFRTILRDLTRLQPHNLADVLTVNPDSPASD

inhibition at 10 µM ([1]; compound at 10 μM, ATP 10 μM)	Kd [2]	inhibition at 10 µM ([3]; compound at 10 μM, ATP 10 μM)	Structure (SMILES)	other results
< 50%	< 0.2 nM	< 50%	CNc1cc(Nc2cccn([C@@H]3CCCOC3)c2=O)nc2c(C(=O)N[C@H]3COC[C@H]3O)cnn12 [I-754]	
< 50%	< 0.2 nM	< 50%	CNc1cc(Nc2cccn([C@H]3CCC[C@H](O)C3)c2=O)nc2c(C(=O)NC3CC3)cnn12 [I-760]	
< 50%	0.2 to 1 nM	< 50%	CNc1cc(Nc2cccn(C3CCN(C)CC3(F)F)c2=O)nc2c(C(=O)NC3CC3)cnn12 (stereo not drawn) [I-761]	
< 50%	< 0.2 nM	< 50%	CNc1cc(Nc2cccn(C3CC4(COC4)C3)c2=O)nc2c(C(=O)N[C@H]3CC[C@H]3O)cnn12 [I-763]	
< 50%	< 0.2 nM	< 50%	CNc1cc(Nc2cccn(-c3nc(C)co3)c2=O)nc2c(C(=O)N[C@@H]3CC[C@H]3O)cnn12 [I-768]	
< 50%	0.2 to 1 nM	< 50%	CNc1cc(Nc2cccc3ocnc23)nc2c(C(=O)N[C@H]3CC[C@H]3O)cnn12 [I-771]	
	< 0.2 nM		CNc1cc(Nc2cccn([C@@H]3CCCOC3)c2=O)nc2c(C(=O)N[C@H]3CCC[C@H](O)C3)cnn12 [I-781]	JAK2 JH1% Inhibition @ 10 μM ([1]; compound at 10 μM, ATP 10 μM): A (percent inhibition at 10 μM lower than 50); Tyk2 JH1% Inhibition @ 10 μM ([3]; compound at 10 μM, ATP 10 μM): A (percent inhibition at 10 μM lower than 50)
	> 10 nM		CNc1cc(Nc2cccn([C@H]3CCCOC3)c2=O)nc2c(C(=O)N[C@H]3COC[C@H]3O)cnn12 [I-784]	JAK2 JH1% Inhibition @ 10 μM ([1]; compound at 10 μM, ATP 10 μM): A (percent inhibition at 10 μM lower than 50); Tyk2 JH1% Inhibition @ 10 μM ([3]; compound at 10 μM, ATP 10 μM): A (percent inhibition at 10 μM lower than 50)
< 50%	< 0.2 nM	< 50%	CNc1cc(Nc2cccn([C@H]3CCCOC3)c2=O)nc2c(C(=O)N[C@@H]3COC[C@@H]3O)cnn12 [I-785]	
< 50%	> 10 nM	< 50%	CNc1cc(Nc2cccn([C@@H]3CCCOC3)c2=O)nc2c(C(=O)N[C@@H]3COC[C@@H]3O)cnn12 [I-787]	
< 50%	< 0.2 nM	< 50%	CNc1cc(Nc2cccn([C@@H]3C[C@H]3F)c2=O)nc2c(C(=O)NC3CC3)cnn12 [I-788]	
< 50%	< 0.2 nM	< 50%	CNc1cc(Nc2cccn([C@H]3CCC[C@@H](OC)C3)c2=O)nc2c(C(=O)N[C@@H]3C[C@@H]3F)cnn12 [I-795]	
< 50%	0.2 to 1 nM	< 50%	CNc1cc(Nc2cc(Cl)cn([C@@H]3CCCOC3)c2=O)nc2c(C(=O)N[C@H]3[C@@H]4COC[C@@H]43)cnn12 [I-799]	
< 50%	0.2 to 1 nM	< 50%	CNc1cc(Nc2cc(Cl)cn([C@H]3CCCOC3)c2=O)nc2c(C(=O)N[C@H]3[C@@H]4COC[C@@H]43)cnn12 [I-800]	
< 50%	0.2 to 1 nM	< 50%	CNc1cc(Nc2cccn([C@H]3CC[C@@H]3O)c2=O)nc2c(C(=O)NC3CC3)cnn12 [I-801]	
	0.2 to 1 nM		CNc1cc(Nc2cccn([C@H]3CCCOC3)c2=O)nc2c(C(=O)N[C@@H]3CC[C@@H]3O)cnn12 [I-804]	JAK2 JH1% Inhibition @ 10 μM ([1]; compound at 10 μM, ATP 10 μM): A (percent inhibition at 10 μM lower than 50); Tyk2 JH1% Inhibition @ 10 μM ([3]; compound at 10 μM, ATP 10 μM): A (percent inhibition at 10 μM lower than 50)
	0.2 to 1 nM		CNc1cc(Nc2cccn(-c3ccccn3)c2=O)nc2c(C(=O)N[C@@H]3CC[C@@H]3O)cnn12 [I-806]	JAK2 JH1% Inhibition @ 10 μM ([1]; compound at 10 μM, ATP 10 μM): A (percent inhibition at 10 μM lower than 50); Tyk2 JH1% Inhibition @ 10 μM ([3]; compound at 10 μM, ATP 10 μM): A (percent inhibition at 10 μM lower than 50)
	0.2 to 1 nM		CNc1cc(Nc2cccn(-c3cnco3)c2=O)nc2c(C(=O)N[C@H]3CC[C@H]3O)cnn12 [I-809]	JAK2 JH1% Inhibition @ 10 μM ([1]; 10 μM compound, 10 μM ATP): A (percent inhibition at 10 μM lower than 50); Tyk2 JH1% Inhibition @ 10 μM ([3]; 10 μM compound, 10 μM ATP): A (percent inhibition at 10 μM lower than 50)
	< 0.2 nM		CNc1cc(Nc2cccn([C@H]3[C@@H]4COC[C@@H]43)c2=O)nc2c(C(=O)NC3CC3)cnn12 [I-810]	inhibition at 10 µM ([1]; 10 μM compound, 10 μM ATP): < 50%; inhibition at 10 µM ([3]; 10 μM compound, 10 μM ATP): < 50%
	< 0.2 nM		CNc1cc(Nc2cccn([C@@H]3CCC[C@@H](O)C3)c2=O)nc2c(C(=O)NC3CC3)cnn12 [I-822]	inhibition at 10 µM ([1]; 10 μM compound, 10 μM ATP): < 50%; inhibition at 10 µM ([3]; 10 μM compound, 10 μM ATP): < 50%

Continued, compound first:

Structure (SMILES)	inhibition at 10 µM ([1]; compound at 10 μM, ATP 10 μM)	Kd [2]	inhibition at 10 µM ([3]; compound at 10 μM, ATP 10 μM)	other results
CNc1cc(Nc2cccc3ocnc23)nc2c(C(=O)N[C@H]3COC[C@H]3O)cnn12 [I-755]	< 50%	< 0.2 nM	< 50%	
CNc1cc(Nc2cccc(N3CC(O)C3)n2)nc2c(C(=O)N[C@@H]3C[C@@H]3F)cnn12 [I-757]	< 50%	< 0.2 nM	< 50%	
CNc1cc(Nc2cccc(N3CC4(CCO4)C3)n2)nc2c(C(=O)N[C@H]3CC[C@H]3O)cnn12 [I-758]	< 50%	0.2 to 1 nM	< 50%	
CNc1cc(Nc2cccn(-c3ccc(C)nc3)c2=O)nc2c(C(=O)NC3CC3)cnn12 [I-765, N-cyclopropyl-5-((6′-methyl-2-oxo-2H-[1,3′-bipyridin]-3-yl)amino)-7-(methylamino)pyrazolo[1,5-a]pyrimidine-3-carboxamide]	< 50%	< 0.2 nM	< 50%	
CNc1cc(Nc2cccn(-c3ccc(C)nc3)c2=O)nc2c(C(=O)N[C@@H]3C[C@@H]3F)cnn12 [I-766]	< 50%	< 0.2 nM	< 50%	
CNc1cc(Nc2cccn(-c3ccc(C)nc3)c2=O)nc2c(C(=O)NCC(C)(C)CO)cnn12 [I-767]	< 50%	< 0.2 nM	< 50%	
CNc1cc(Nc2cccc([C@H]3CCCOC3)n2)nc2c(C(=O)N[C@H]3COC[C@H]3O)cnn12 [I-774]		1 to 10 nM		JAK2 JH1% Inhibition @ 10 μM ([1]; compound at 10 μM, ATP 10 μM): A (percent inhibition at 10 μM lower than 50); Tyk2 JH1% Inhibition @ 10 μM ([3]; compound at 10 μM, ATP 10 μM): A (percent inhibition at 10 μM lower than 50)
CNc1cc(Nc2cccc([C@H]3CCCOC3)n2)nc2c(C(=O)N[C@@H]3COC[C@@H]3O)cnn12 [I-775]		< 0.2 nM		JAK2 JH1% Inhibition @ 10 μM ([1]; compound at 10 μM, ATP 10 μM): A (percent inhibition at 10 μM lower than 50); Tyk2 JH1% Inhibition @ 10 μM ([3]; compound at 10 μM, ATP 10 μM): A (percent inhibition at 10 μM lower than 50)
CNc1cc(-c2cn(CCN3CCOCC3)c3ncccc23)nc2c(C(=O)N[C@H]3CC[C@H]3O)cnn12 [I-778]	< 50%	< 0.2 nM	< 50%	
CNc1cc(-c2cn(CCN3CCOCC3)c3ncccc23)nc2c(C(=O)N[C@@H]3CC[C@@H]3O)cnn12 [I-779]		0.2 to 1 nM		JAK2 JH1% Inhibition @ 10 μM ([1]; compound at 10 μM, ATP 10 μM): A (percent inhibition at 10 μM lower than 50); Tyk2 JH1% Inhibition @ 10 μM ([3]; compound at 10 μM, ATP 10 μM): A (percent inhibition at 10 μM lower than 50)
CNc1cc(-c2cn(CCN3CCOCC3)c3ncccc23)nc2c(C(=O)N[C@@H]3CC[C@H]3O)cnn12 [I-792, N-(2-hydroycyclobutyl)-7-(methylamino)-5-(1-(2-morpholinoethyl)-1H-pyrrolo[2,3-b]pyridine-3-yl)pyrazolo[1,5-a]pyrimidine-3-carboxamide]	< 50%	< 0.2 nM	< 50%	
CNc1cc(-c2cn(CCN3CCCCC3)c3ncccc23)nc2c(C(=O)N[C@@H]3CC[C@@H]3O)cnn12 [I-793]	< 50%	< 0.2 nM	< 50%	
CNc1cc(-c2cn(CCN3CCCCC3)c3ncccc23)nc2c(C(=O)N[C@@H]3CC[C@H]3O)cnn12 [I-794]	< 50%	< 0.2 nM	< 50%	
CNc1cc(-c2cn(CCN3CCOCC3)c3ncccc23)nc2c(C(N)=O)cnn12 [I-796, 7-(methylamino)-5-(1-(2-morpholinoethyl)-1H-pyrrolo[2,3-b]pyridin-3-yl)pyrazolo[1,5-a]pyrimidine-3-carboxamide]	< 50%	< 0.2 nM	< 50%	
CNc1cc(-c2cn(CCN3CCCCC3)c3ncccc23)nc2c(C(N)=O)cnn12 [I-797]	< 50%	< 0.2 nM	< 50%	
CNc1cc(-c2cn(CCN3CCOCC3)c3ncccc23)nc2c(C(=O)NCC3(CO)CC3)cnn12 [I-807, N-((1-(hydroxymethyl)cyclopropyl)methyl)-7-(methylamino)-5-(1-(2-morpholinoethyl)-1H-pyrrolo[2,3-b]pyridin-3-yl)pyrazolo[1,5-a]pyrimidine-3-carboxamide]	< 50%	0.2 to 1 nM	< 50%	
CNc1cc(Nc2cccn(-c3cnn(C)c3F)c2=O)nc2c(C(=O)NC3CC3)cnn12 [I-808]		< 0.2 nM		inhibition at 10 µM ([1]; 10 μM compound, 10 μM ATP): < 50%; inhibition at 10 µM ([3]; 10 μM compound, 10 μM ATP): < 50%
CNc1cc(Nc2cccn(-c3cccnc3C)c2=O)nc2c(C(=O)NC3CC3)cnn12 [I-812]		1 to 10 nM		inhibition at 10 µM ([1]; 10 μM compound, 10 μM ATP): < 50%; inhibition at 10 µM ([3]; 10 μM compound, 10 μM ATP): < 50%
CNc1cc(Nc2cccn(-c3cccnc3C)c2=O)nc2c(C(=O)N[C@@H]3C[C@@H]3F)cnn12 [I-813]		0.2 to 1 nM		inhibition at 10 µM ([1]; 10 μM compound, 10 μM ATP): < 50%; inhibition at 10 µM ([3]; 10 μM compound, 10 μM ATP): < 50%
CNc1cc(-c2cn(CCN3CCOCC3)c3ncccc23)nc2c(C(=O)NCC(C)(C)CO)cnn12 [I-818, N-(3-hydroxy-2,2-dimethylpropyl)-7-(methylamino)-5-(1-(2-morpholinoethyl)-1H-pyrrolo[2,3-b]pyridin-3-yl)pyrazolo[1,5-a]pyrimidine-3-carboxamide]		0.2 to 1 nM		inhibition at 10 µM ([1]; 10 μM compound, 10 μM ATP): < 50%; inhibition at 10 µM ([3]; 10 μM compound, 10 μM ATP): < 50%
